In PubChem BioAssay AID1964 (Broad Institute, 2009):
Results filed as inconclusive are left out. Activity calls are given as the source filed them. How the calls were made is not given here.

Molecular target: RNA-binding protein pos-1 (Caenorhabditis elegans) (UniProt G5EF15)
Assay: inhibitors of POS-1/mex-3 RNA binding, dose response, biochemical, fluorescence polarization (AID 1964)
Details: POS-1/mex-3 RNA fluorescence polarization

RNA-binding protein pos-1 (Caenorhabditis elegans), sequence (G5EF15 whole entry, looked up): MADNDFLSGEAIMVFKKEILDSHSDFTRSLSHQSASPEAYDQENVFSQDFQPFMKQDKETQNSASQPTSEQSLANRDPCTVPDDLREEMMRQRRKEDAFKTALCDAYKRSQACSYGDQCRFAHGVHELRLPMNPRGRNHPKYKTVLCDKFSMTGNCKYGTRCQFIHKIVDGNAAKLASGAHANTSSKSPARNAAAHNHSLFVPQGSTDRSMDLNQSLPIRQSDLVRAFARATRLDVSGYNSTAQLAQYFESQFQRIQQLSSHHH

SMILES	IC50
Cc1cc(/C=C2\C(=O)NC(=O)N(Cc3ccco3)C2=O)c(C)n1-c1ccc(C(=O)O)cc1	> 30 µM (inactive)
C[C@H]1c2cccc(O)c2C(O)=C2C(=O)[C@]3(O)C(O)=C(C(N)=O)C(=O)[C@@H](N(C)C)[C@@H]3[C@@H](O)[C@@H]21	> 30 µM (inactive)
C[C@H]1c2cccc(O)c2C(O)=C2C(=O)[C@]3(O)C(O)=C(C(N)=O)C(=O)[C@@H](N(C)C)C3[C@@H](O)C21 (stereo not given in full)	> 30 µM (inactive)
CCC(C)/C=C(C)/C=C/C1=CC2=C(Cl)C(=O)C(C)(OC(C)=O)C(=O)C2=CO1 (stereo not given)	> 30 µM (inactive)
Cc1cc(/C=C2/C(=O)NC(=O)N(Cc3ccco3)C2=O)c(C)n1-c1ccc(C(=O)O)cc1	> 30 µM (inactive)
